Measurements taken from US20140011682A1, “USE OF OPEN-CHAIN CARBOXYLIC ACIDS, CARBONIC ESTERS, CARBOXAMIDES AND CARBONITRILES OF ARYL, HETEROARYL AND BENZYLSULFONAMIDE OR THE SALTS THEREOF FOR IMPROVING THE STRESS TOLERANCE IN PLANTS” (BAYER INTELLECTUAL PROPERTY GMBH, priority 2010, published 2014).

Legend:
Type in all cases: in vivo
Conditions in all cases: mean of three results
[1] = test system: BRSNS=Brassica napus; assay: Drought stress test on crop plants in the greenhouse, spray application, Brassica napus
Method: (§1) Seeds of monocotyledonous and dicotyledonous crop plants were placed in sandy loam in wood-fiber pots, covered with soil and cultivated in a greenhouse under good growth conditions. The test plants were treated at the early leaf stage (BBCH10 BBCH13). To ensure uniform water supply before commencement of stress, the potted plants were supplied with the maximum amount of water immediately beforehand by dam irrigation and, after application, transferred in plastic inserts in order to prevent subsequent, excessively rapid drying. The inventive compounds, formulated in the form of wettable powders (WP), wettable granules (WG), suspension concentrates (SC) or emulsion concentrates (EC), were sprayed onto the green parts of the plants as an aqueous suspension at an equivalent water application rate of 600 l/ha with addition of 0.2% wetting agent (agrotin). Substance application is followed immediately by stress treatment of the plants (cold or drought stress). For cold stress treatment, the plants were kept under the following controlled conditions:
(§2) Drought stress was induced by gradual drying out under the following conditions:
(§3) “day”: 14 hours with illumination at 26° C.
(§4) “night”: 10 hours without illumination at 18° C.
(§5) The duration of the respective stress phases was guided mainly by the state of the untreated, stressed control plants and thus varied from crop to crop. It was ended (by re-irrigating or transferring it to a greenhouse with good growth conditions) as soon as irreversible damage was observed on the untreated, stressed control plants. In the case of dicotyledonous crops, for example oilseed rape and soybeans, the duration of the drought stress phase varied between 3 and 5 days, in the case of monocotyledonous crops, for example wheat, barley or corn, between 6 and 10 days. The duration of the cold stress phase varied between 12 and 14 days. The end of the stress phase was followed by an approx. 5-7-day recovery phase, during which the plants were once again kept under good growth conditions in a greenhouse. In order to rule out any influence of the effects observed by any fungicidal action of the test compounds, it is additionally ensured that the tests proceed without fungal infection and without infection pressure.
(§6) After the recovery phase had ended, the intensities of damage were rated in visual comparison to untreated, unstressed controls of the same age (in the case of drought stress) or the same growth stage (in the case of cold stress). The intensity of damage was first assessed as a percentage (100%=plants have died, 0%=like control plants). These values were then used to calculate the efficacy of the test compounds (=percentage reduction in the intensity of damage as a result of substance application) by the following formula: […]
(§7) DVus: damage value of the untreated, stressed control
(§8) DVts: damage value of the plants treated with test compound
(§9) The tables below list mean values in each case from three results of the same test.

[2] = test system: TRZAS=Triticum aestivum; assay: Drought stress test on crop plants in the greenhouse, spray application, Triticum aestivum
Method: as §1, §2, §3, §4, §5, §6, §7, §8, §9

[3] = test system: ZEAMX=Zea mays; assay: Drought stress test on crop plants in the greenhouse, spray application, Zea mays
Method: as §1, §2, §3, §4, §5, §6, §7, §8, §9

Row | Compound | EF (BRSNS): Efficacy = percentage reduction in the intensity of damage ([1]; dosage 250 g/ha) | EF (TRZAS) Efficacy ([2]; dosage 250 g/ha) | EF (TRZAS) Efficacy ([2]; dosage 25 g/ha) | also measured
1 | C#CCC(NS(=O)(=O)c1cccc2ccccc12)C(=O)OC (centres unmarked) [I.2-86] | >5% | >5% | – | –
2 | CCOC(=O)CC(NS(=O)(=O)c1c(C)cccc1C)C(C)C (centres unmarked) [I.52-28] | – | – | – | EF (BRSNS): Efficacy = percentage reduction in the intensity of damage ([1]; dosage 25 g/ha): >5%
3 | COC(=O)C(Cc1ccc(F)cc1)NS(=O)(=O)c1ccc(OC)cc1 (centres unmarked) [I.37-90] | >5% | – | – | EF (ZEAMX): Efficacy = percentage reduction in the intensity of damage ([3]; dosage 25 g/ha): >5%
4 | COC(=O)C(CC(C)C)NS(=O)(=O)c1ccc(Br)cc1 (centres unmarked) [I.1-77] | >5% | – | – | –
5 | CCOC(=O)CC(CC(C)C)NS(=O)(=O)c1cccc2ccccc12 (centres unmarked) [I.2-62] | – | >5% | – | EF (ZEAMX): Efficacy = percentage reduction in the intensity of damage ([3]; dosage 25 g/ha): >5%
6 | COC(=O)CC(NS(=O)(=O)c1ccc(Br)cc1)C(C)C (centres unmarked) [I.1-29, Methyl 3-{[(4-bromophenyl)sulfonyl]amino}-4-methylpentanoate] | >5% | – | – | EF (ZEAMX): Efficacy = percentage reduction in the intensity of damage ([3]; dosage 250 g/ha): >5%
7 | COC(=O)CC(NS(=O)(=O)c1ccc(Br)cc1)C(=O)OC (centres unmarked) [I.1-63] | >5% | – | >5% | –
8 | COC(=O)CC(NS(=O)(=O)c1ccc(Br)cc1)c1ccc(Br)cc1 (centres unmarked) [I.1-35] | – | – | >5% | EF (BRSNS): Efficacy = percentage reduction in the intensity of damage ([1]; dosage 2.5 g/ha): >5%
9 | COC(=O)C(NS(=O)(=O)c1cccc2ccccc12)C(C)C (centres unmarked) [I.2-75] | – | – | >5% | EF (BRSNS): Efficacy = percentage reduction in the intensity of damage ([1]; dosage 25 g/ha): >5%; EF (ZEAMX): Efficacy = percentage reduction in the intensity of damage ([3]; dosage 250 g/ha): >5%
10 | CCCC(NS(=O)(=O)c1ccc(OC)cc1)C(=O)OC (centres unmarked) [I.37-73] | – | >5% | – | EF (BRSNS): Efficacy = percentage reduction in the intensity of damage ([1]; dosage 25 g/ha): >5%
11 | COC(=O)C(Cc1c[nH]cn1)NS(=O)(=O)c1ccc(Br)c2ccccc12 (centres unmarked) [I.3-106] | – | >5% | – | EF (BRSNS): Efficacy = percentage reduction in the intensity of damage ([1]; dosage 25 g/ha): >5%
12 | COC(=O)C(CC(C)C)NS(=O)(=O)c1cccc2ccccc12 (centres unmarked) [I.2-77] | – | >5% | – | EF (BRSNS): Efficacy = percentage reduction in the intensity of damage ([1]; dosage 2.5 g/ha): >5%
13 | C#CCC(NS(=O)(=O)c1ccc(OC)cc1)C(=O)OC (centres unmarked) [I.37-86] | – | >5% | – | EF (ZEAMX): Efficacy = percentage reduction in the intensity of damage ([3]; dosage 250 g/ha): >5%
14 | CCOC(=O)CC(NS(=O)(=O)c1ccc(Br)cc1)c1ccccc1Cl (centres unmarked) [I.1-33] | – | >5% | – | EF (BRSNS): Efficacy = percentage reduction in the intensity of damage ([1]; dosage 25 g/ha): >5%
15 | COC(=O)C(Cc1cn(C)cn1)NS(=O)(=O)c1cccc2ccccc12 (centres unmarked) [I.2-74] | >5% | – | >5% | –
16 | CC(C)(C)OC(=O)CCCNS(=O)(=O)c1ccc(Br)c2ccccc12 [I.3-70] | – | – | – | EF (BRSNS): Efficacy = percentage reduction in the intensity of damage ([1]; dosage 2.5 g/ha): >5%
17 | COC(=O)C(Cc1ccc(F)cc1)NS(=O)(=O)c1ccc(Br)c2ccccc12 (centres unmarked) [I.3-90] | – | – | >5% | EF (BRSNS): Efficacy = percentage reduction in the intensity of damage ([1]; dosage 25 g/ha): >5%
18 | CCOC(=O)CC(NS(=O)(=O)c1ccc(OC)cc1)C(C)C (centres unmarked) [I.37-28] | >5% | >5% | – | –
19 | COC(=O)C(Cc1cccnc1)NS(=O)(=O)c1ccc(OC)cc1 (centres unmarked) [I.37-82] | >5% | – | >5% | –
20 | COC(=O)C(NS(=O)(=O)c1ccc(OC)cc1)C(C)C (centres unmarked) [I.37-75] | >5% | – | – | –
21 | CC(C)CC(C)(C#N)NS(=O)(=O)c1ccc(Br)cc1 (centres unmarked) [I.1-14] | – | – | – | EF (BRSNS): Efficacy = percentage reduction in the intensity of damage ([1]; dosage 25 g/ha): >5%; EF (ZEAMX): Efficacy = percentage reduction in the intensity of damage ([3]; dosage 250 g/ha): >5%
22 | COC(=O)C(COC(C)(C)C)NS(=O)(=O)c1ccc(OC)cc1 (centres unmarked) [I.37-91] | >5% | – | – | EF (ZEAMX): Efficacy = percentage reduction in the intensity of damage ([3]; dosage 25 g/ha): >5%
23 | CCOC(=O)CC(NS(=O)(=O)c1ccc(Br)cc1)C(F)(F)F (centres unmarked) [I.1-103] | >5% | – | >5% | –
24 | CCOC(=O)CC(NS(=O)(=O)c1ccc(Br)cc1)C(C)C (centres unmarked) [I.1-28] | – | – | – | EF (BRSNS): Efficacy = percentage reduction in the intensity of damage ([1]; dosage 2.5 g/ha): >5%
25 | CCOC(=O)CC(NS(=O)(=O)c1ccc(Br)c2ccccc12)C(C)C (centres unmarked) [I.3-28] | >5% | >5% | – | –
26 | CCOC(=O)CC(NS(=O)(=O)c1ccc(Br)c2ccccc12)C(F)(F)F (centres unmarked) [I.3-103] | – | – | >5% | EF (BRSNS): Efficacy = percentage reduction in the intensity of damage ([1]; dosage 25 g/ha): >5%
27 | COC(=O)C(NS(=O)(=O)c1ccc(Br)c2ccccc12)C(C)C (centres unmarked) [I.3-75] | >5% | – | >5% | –
